Laboratory results: the supplement of paper PMC11061612

What was measured:
[1] = test system: CAL-148 (Breast Carcinoma); assay: Bliss excess, mean over the matrix (fraction); higher = more synergy
In short: (§1)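 Bliss excess equals the observed combination effect minus the expected value EA + EB − EA·EB, where EA and EB are the effects of each agent alone. Combination Emax is the second-highest inhibition within the matrix. Inhibition was scaled from CellTiter-Glo 2.0 luminescence, with 0 set by vehicle wells and 1 by blank wells, after 72 hours of two-drug dosing of cells plated in 1536-well plates.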

[2] = test system: CCRF-CEM (T-Lymphoblastic Leukemia); assay: as above
In short: as §1

[3] = test system: CaR-1 (Colorectal Carcinoma); assay: as above
In short: as §1

[4] = test system: DoTc2-4510 (Cervical Carcinoma); assay: as above
In short: as §1

[5] = test system: HCC-78 (Lung Adenocarcinoma); assay: as above
In short: as §1

[6] = test system: HO-1-N-1 (Oral Cavity Carcinoma); assay: as above
In short: as §1

HOS (Osteosarcoma) = assay: as above
In short: as §1

[7] = test system: HT-1376 (Bladder Carcinoma); assay: as above
In short: as §1

[8] = test system: Hs-578-T (Breast Carcinoma); assay: as above
In short: as §1

KELLY (Neuroblastoma) = assay: as above
In short: as §1

[9] = test system: KURAMOCHI (Ovarian Carcinoma); assay: as above
In short: as §1

[10] = test system: LB831-BLC (Bladder Carcinoma); assay: as above
In short: as §1

NB10 (Neuroblastoma) = assay: as above
In short: as §1

[11] = test system: NCI-H2085 (Non-Small Cell Lung Carcinoma); assay: as above
In short: as §1

[12] = test system: NCI-H82 (Small Cell Lung Carcinoma); assay: as above
In short: as §1

[13] = test system: Ramos-2G6-4C10 (Burkitt's Lymphoma); assay: as above
In short: as §1

[14] = test system: CAL-148 (Breast Carcinoma); assay: combination Emax (second highest fraction inhibited in the dose matrix, 72 h); higher = more inhibition; extreme values may be limits of the assay
In short: as §1

[15] = test system: DoTc2-4510 (Cervical Carcinoma); assay: as above
In short: as §1

[16] = test system: Hs-578-T (Breast Carcinoma); assay: as above
In short: as §1

[17] = test system: ME-1 (Acute Myeloid Leukemia); assay: as above
In short: as §1

Compound	Bliss excess [1]	Bliss excess [2]	Bliss excess [3]	Bliss excess [4]	Bliss excess [5]	Bliss excess [6]	Bliss excess (HOS (Osteosarcoma))	Bliss excess [7]	Bliss excess [8]	Bliss excess (KELLY (Neuroblastoma))	Bliss excess [9]	Bliss excess [10]	Bliss excess (NB10 (Neuroblastoma))	Bliss excess [11]	Bliss excess [12]	Bliss excess [13]	combination Emax [14]	combination Emax [15]	combination Emax [16]	combination Emax [17]
C=CCn1c(=O)c2cnc(Nc3ccc(N4CCN(C)CC4)cc3)nc2n1-c1cccc(C(C)(C)O)n1 [AZD1775] + CCc1c2c(nc3ccc(O)cc13)-c1cc3c(c(=O)n1C2)COC(=O)[C@]3(O)CC [SN-38] (first compound max 1 µM, partner max 0.3 µM)	-0.0022	-0.0423	-0.0429	-0.0173	0.0002	-0.0092	-0.0934	-0.0194	0.0934	-0.0534	-0.0053	0.0518	-0.141	-0.0202	-0.0569	0.0943	0.974	0.92	0.855	0.597
C=CCn1c(=O)c2cnc(Nc3ccc(N4CCN(C)CC4)cc3)nc2n1-c1cccc(C(C)(C)O)n1 [AZD1775] + Nc1ccn([C@@H]2O[C@H](CO)[C@@H](O)C2(F)F)c(=O)n1 [Gemcitabine] (first compound max 1 µM, partner max 0.3 µM)	0.0035	0.0584	-0.0001	0.033	0.0795	0.0188	0.0754	-0.0432	0.045	0.0306	0.0284	0.0909	0.0509	0.032	-0.0404	0.186	0.989	0.729	0.724	0.526
CN(CCO)CC[C@H](CSc1ccccc1)Nc1ccc(S(=O)(=O)NC(=O)c2ccc(N3CCC([C@@H](O)c4ccccc4-c4ccc(Cl)cc4)CC3)cc2)cc1S(=O)(=O)C(F)(F)F [AZD4320] + CC(=O)O[C@H]1C(=O)[C@@]2(C)[C@H]([C@H](OC(=O)c3ccccc3)[C@]3(O)C[C@H](OC(=O)[C@H](O)[C@@H](NC(=O)c4ccccc4)c4ccccc4)C(C)=C1C3(C)C)[C@]1(OC(C)=O)CO[C@@H]1C[C@@H]2O [Paclitaxel] (first compound max 1 µM, 7x7, partner max 3 µM)	0.0761	-0.0072	0.0892	0.111	0.168	0.0178	0.184	0.0857	0.047	-0.0068	0.0929	0.104	0.0462	0.207	-0.0552	-0.151	1	0.992	1	1
CN(CCO)CC[C@H](CSc1ccccc1)Nc1ccc(S(=O)(=O)NC(=O)c2ccc(N3CCC([C@@H](O)c4ccccc4-c4ccc(Cl)cc4)CC3)cc2)cc1S(=O)(=O)C(F)(F)F [AZD4320] + CS(=O)(=O)CCNCc1ccc(-c2ccc3ncnc(Nc4ccc(OCc5cccc(F)c5)c(Cl)c4)c3c2)o1 [Lapatinib] (first compound max 1 µM, 7x7, partner max 10 µM)	-0.0411	0.0305	-0.0122	0.051	-0.0248	0.0439	-0.0381	0.0125	0.0188	0.0272	0.0392	0.0245	-0.0204	0.019	0.0747	0.117	0.94	0.974	0.99	1
CN(CCO)CC[C@H](CSc1ccccc1)Nc1ccc(S(=O)(=O)NC(=O)c2ccc(N3CCC([C@@H](O)c4ccccc4-c4ccc(Cl)cc4)CC3)cc2)cc1S(=O)(=O)C(F)(F)F [AZD4320] + Nc1ccn([C@@H]2O[C@H](CO)[C@@H](O)C2(F)F)c(=O)n1 [Gemcitabine] (first compound max 1 µM, 7x7, partner max 0.3 µM)	0.0502	0.0061	0.0125	0.0764	-0.0215	-0.0049	0.0045	-0.0644	0.14	0.0014	0.0216	-0.0192	-0.0457	0.0228	0.016	-0.0368	0.974	0.882	0.876	1
Cc1c2c(nn1C)CSCc1cc(n(C)n1)CSc1cc(c3ccccc3c1)OCCCc1c(C(=O)O)n(C)c3c-2c(Cl)ccc13 [AZD5991] + CC(=O)O[C@H]1C(=O)[C@@]2(C)[C@H]([C@H](OC(=O)c3ccccc3)[C@]3(O)C[C@H](OC(=O)[C@H](O)[C@@H](NC(=O)c4ccccc4)c4ccccc4)C(C)=C1C3(C)C)[C@]1(OC(C)=O)CO[C@@H]1C[C@@H]2O [Paclitaxel] (first compound max 1 µM, 7x7, partner max 3 µM)	0.0436	-0.0339	0.038	-0.0508	0.11	0.0062	0.103	-0.0424	0.0368	0.0544	0.0479	0.0261	0.0264	0.0904	-0.0392	-0.104	0.81	0.544	0.988	0.715
